Reference: patent publication US11465965B2, “Double-headed protease inhibitor” (UBE INDUSTRIES, LTD., priority 2017, dated 2022)
Structures can show the parent of a compound that is named as a salt. Where two headings read alike, the source gives them in different places.

How the values were obtained:
[1] = tested on: HFD-fed mouse; experiment: Fecal protein concentration-increasing test by single administration using HFD-fed mouse; type: in vivo; conditions: 24 h, HFD-fed mice, vs vehicle group, read-out: Ratio for an increase of protein concentration in feces; for response vs control in vivo at 30 mg/kg: single oral dose 30 mg/kg
Source text: (Test Example 3): Fecal Protein Concentration-Increasing Test by Single Administration Using HFD-Fed Mouse
High fat diet-fed (HFD-fed) mice (D-12492 diet, male, ICR, 6 week old) were orally administered with a 0.5 W/V % methylcellulose suspension comprising each test compound (Compound administration group, 4 or 5 mice/group) or a 0.5 W/V % methylcellulose suspension (Compound non-administration group (Vehicle group), 5, 6, or 7 mice/group), and whole feces of the day were collected. Dried feces were dissolved into a 0.5N aqueous sodium hydroxide solution, followed by centrifugation at 3500 rpm. Then each protein concentration in the resulting supernatant was determined (Lowry method), and the ratio for an increase of protein concentration in feces was calculated by the following equation using the protein concentration in feces contained in 1 g of feces (mg/g feces). Ratio for an increase of protein concentration in feces−(average protein concentration in feces of Compound administration group)[…](average protein concentration in feces of Compound non-administration group)

[2] = molecular target: T1, Human recombinant enteropeptidase (Homo sapiens, UniProt P98073); experiment: Human enteropeptidase inhibition test; type: biochemical; conditions: read-out: Inhibition rate (enteropeptidase); for inhibition at 0.001 µM: compound concentration 1 nM
T1 construct: purchased BIO Vision Inc. 7529-50
Method: (Test Example 1): Human Enteropeptidase Inhibition Test
Human recombinant enteropeptidase (manufactured by BIO Vision Inc., catalog no.: 7529-50) was diluted with an assay buffer (50 mM tricine (pH8.0), 0.01 W/V % Tween 20, 10 mM CaCl2) to prepare an […] enzyme solution. Then, 5FAM-Abu-Gly-Asp-Asp-Lys-Ile-Val-Gly-Gly-Lys (CPQ2)-Lys-Lys-NH2 (manufactured by CHINESE PEPTIDE COMPANY, purity: 94.5) was diluted with the assay buffer to prepare a 1.5 μM substrate solution. Each test compound was dissolved into DMSO, then diluted with the assay buffer 100 times, and further appropriately diluted with an assay buffer comprising 1% DMSO to prepare each compound solution. 10 μL of the compound solution, 15 μL of the assay buffer, and 50 μL of the substrate solution were added to a 96 well black plate (manufactured by Thermo Fisher Scientific Inc., code no.: 9502867), mixed, then 25 μL of the enzyme solution was added thereto, and mixed to start the reaction. Fluorescence intensities at excitation wavelength 485 nm and fluorescence wavelength 535 nm were measured by using a fluorescence plate reader (Flex station 3) (Test compound addition group). Also, the same reaction as described above except for not adding each test compound was carried out (Test compound non-addition group). Additionally, the same reaction as described above except for not adding each test compound and the enzyme was carried out (Control group). Inhibition rate was calculated by the following equation using fluorescence intensity after 20 minutes of reaction start. Inhibition rate (%)=(1−(fluorescence intensity of Test compound addition group−fluorescence intensity of Control group)÷(fluorescence intensity of Test compound non-addition group−fluorescence intensity of Control group))×100

[3] = molecular target: T2, Human recombinant trypsin (Homo sapiens, UniProt P07477); experiment: Human trypsin inhibition test; type: biochemical; conditions: 20 minutes after reaction start, read-out: Inhibition rate (trypsin); for inhibition at 0.01 µM: compound concentration 10 nM; for inhibition at 0.1 µM: compound concentration 100 nM; for inhibition at 0.001 µM: compound concentration 1 nM
T2 construct: purchased Wako Pure Chemical Industries, Ltd. 206-17171
Method: (Test Example 2): Human Trypsin Inhibition Test
Human recombinant trypsin (manufactured by Wako Pure Chemical Industries, Ltd., code no.: 206-17171) was diluted with an assay buffer (0.1 M Tris-HCl (pH8.0), 0.15 M NaCl, 10 mM CaCl2, 0.05% Brij35) to prepare a 10 ng/mL enzyme solution. Then, Boc-Phe-Ser-Arg-MCA (manufactured by PEPTIDE INSTITUTE, INC., code no.: 3107-v) was diluted with the assay buffer to prepare a 40 μM substrate solution. Each test compound was dissolved into DMSO, then diluted with the assay buffer 100 times, and further appropriately diluted with an assay buffer comprising 1% DMSO to prepare each compound solution. 10 μL of the compound solution, 15 μL of the assay buffer, and 50 μL of the substrate solution were added to a 96 well black plate (manufactured by Thermo Fisher Scientific Inc., code no.: 9502867), mixed, and then 25 μL of the enzyme solution was added thereto, and mixed to start the reaction. Fluorescence intensities at excitation wavelength 355 nm and fluorescence wavelength of 460 nm were measured by using a fluorescence plate reader (Flex station 3) (Test compound addition group). Also, the same reaction as described above except for not adding each test compound was carried out (Test compound non-addition group). Additionally, the same reaction as described above except for not adding each test compound and the enzyme was carried out (Control group). Inhibition rate was calculated by the following equation using fluorescence intensity after 20 minutes of reaction start. Inhibition rate (%)=(1−(fluorescence intensity of Test compound addition group−fluorescence intensity of Control group)[…](fluorescence intensity of Test compound non-addition group−fluorescence intensity of Control group))×100

[4] = tested on: DIO mouse; experiment: Anti-obesity effect test using DIO mouse; type: in vivo; conditions: 336 h, DIO mice, vs vehicle group, read-out: Weight loss rate; for inhibition in vivo at 25 mg/kg: oral 25 mg/kg once daily for 2 weeks
Method: (Test Example 4): Anti-Obesity Effect Test Using DIO Mouse
Diet-induced obesity (DIO) mice (D-12492 diet, male, C57BL-DIO, 26 to 28-week old) were orally administered with a 0.5 W/V % methylcellulose suspension comprising each test compound (Compound administration group, 5 or 6 mice/group) or a 0.5 W/V % methylcellulose suspension (Compound non-administration group (Vehicle group), 6 mice/group) once daily for 2 weeks. Weight loss rate was calculated by the following equation. Weight loss rate (%) of each Compound administration group−(1−average weight at the last day of the test of each Compound administration group/average weight at the last day of the test of Vehicle group)×100

[5] = 20 minutes after reaction start
[6] = compound concentration 10 nM, 20 minutes after reaction start
[7] = compound concentration 100 nM, 20 minutes after reaction start

T1 sequence (P98073 whole entry): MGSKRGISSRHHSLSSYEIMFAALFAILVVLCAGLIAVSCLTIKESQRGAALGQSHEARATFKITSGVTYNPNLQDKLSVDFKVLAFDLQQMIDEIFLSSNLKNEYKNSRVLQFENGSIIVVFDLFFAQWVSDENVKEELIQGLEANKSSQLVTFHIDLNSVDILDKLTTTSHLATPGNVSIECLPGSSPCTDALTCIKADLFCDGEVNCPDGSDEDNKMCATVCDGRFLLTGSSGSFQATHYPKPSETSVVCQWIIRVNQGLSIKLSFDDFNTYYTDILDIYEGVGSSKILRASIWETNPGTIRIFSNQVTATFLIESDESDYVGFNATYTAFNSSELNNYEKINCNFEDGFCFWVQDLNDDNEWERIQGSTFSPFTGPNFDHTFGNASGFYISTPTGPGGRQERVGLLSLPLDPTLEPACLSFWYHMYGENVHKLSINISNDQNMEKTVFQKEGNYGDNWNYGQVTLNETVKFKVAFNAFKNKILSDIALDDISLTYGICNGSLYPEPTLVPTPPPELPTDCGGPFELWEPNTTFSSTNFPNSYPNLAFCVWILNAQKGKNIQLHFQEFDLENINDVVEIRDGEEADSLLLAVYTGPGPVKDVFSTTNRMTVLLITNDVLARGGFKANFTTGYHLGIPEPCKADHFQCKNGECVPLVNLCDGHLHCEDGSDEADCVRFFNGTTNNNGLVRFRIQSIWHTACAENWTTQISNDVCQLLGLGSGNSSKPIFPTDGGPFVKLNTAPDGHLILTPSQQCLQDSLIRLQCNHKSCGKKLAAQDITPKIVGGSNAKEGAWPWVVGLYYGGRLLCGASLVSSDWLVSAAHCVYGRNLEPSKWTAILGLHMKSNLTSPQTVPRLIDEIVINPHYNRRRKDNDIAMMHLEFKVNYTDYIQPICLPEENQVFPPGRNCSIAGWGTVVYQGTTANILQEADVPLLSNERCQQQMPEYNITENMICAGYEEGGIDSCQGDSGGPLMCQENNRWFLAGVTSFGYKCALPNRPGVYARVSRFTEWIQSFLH

SMILES: N=C(N)Nc1ccc2c(c1)CCCOc1c(cccc1C(=O)N(CCOCCOCCN(C(=O)c1cccc3c1OCCCc1cc(NC(=N)N)ccc1C(=O)O3)[C@H](CC(=O)O)C(=O)O)[C@H](CC(=O)O)C(=O)O)OC2=O [21-(b), (2R,13R)-3,12-bis(10-guanidino-13-oxo-6,7,8,13-tetrahydrodibenzo[b,f][1,4]dioxecin-4-carbonyl)-6,9-dioxa-3,12-diazatetradecane-1,2,13,14-tetracarboxylic acid trifluoroacetate]
- response vs control in vivo at 30 mg/kg [1]: ≥ 130%
- inhibition at 0.001 µM [2, 5]: ≥ 50%
- inhibition at 0.01 µM [2, 6]: ≥ 50%
- inhibition at 0.1 µM [2, 7]: ≥ 50%
- inhibition at 0.01 µM [3]: ≥ 50%
- inhibition at 0.1 µM [3]: ≥ 50%
- inhibition in vivo at 25 mg/kg [4]: ≥ 4%

SMILES: N=C(N)Nc1ccc2c(c1)CCCOc1c(cccc1C(=O)N(CCOCCOCCN(C(=O)c1cccc3c1OCCCc1cc(NC(=N)N)ccc1C(=O)O3)[C@@H](CC(=O)O)C(=O)O)[C@@H](CC(=O)O)C(=O)O)OC2=O [20-(b), (2S,13S)-3,12-bis(10-guanidino-13-oxo-6,7,8,13-tetrahydrodibenzo[b,f][1,4]dioxecin-4-carbonyl)-6,9-dioxa-3,12-diazatetradecane-1,2,13,14-tetracarboxylic acid trifluoroacetate]
- response vs control in vivo at 30 mg/kg [1]: ≥ 130%
- inhibition at 0.001 µM [2, 5]: ≥ 50%
- inhibition at 0.01 µM [2, 6]: ≥ 50%
- inhibition at 0.1 µM [2, 7]: ≥ 50%
- inhibition at 0.001 µM [3]: ≥ 50%
- inhibition at 0.01 µM [3]: ≥ 50%
- inhibition at 0.1 µM [3]: ≥ 50%
- inhibition in vivo at 25 mg/kg [4]: ≥ 4%

SMILES: N=C(N)Nc1ccc(C(=O)Oc2ccc(CNS(=O)(=O)N(CCOCCOCCOCCOCCOCCOCCN([C@@H](CC(=O)O)C(=O)O)S(=O)(=O)NCc3ccc(OC(=O)c4ccc(NC(=N)N)cc4)cc3)[C@@H](CC(=O)O)C(=O)O)cc2)cc1 [6-(b), (2S,25S)-3,24-bis(N-(4-((4-guanidinobenzoyl)oxy)benzyl)sulfamoyl)-6,9,12,15,18,21-hexaoxa-3,24-diazahexacosane-1,2,25,26-tetracarboxylic acid trifluoroacetate]
- response vs control in vivo at 30 mg/kg [1]: ≥ 130%
- inhibition at 0.01 µM [2]: ≥ 50%
- inhibition at 0.1 µM [2]: ≥ 50%
- inhibition at 0.01 µM [3]: ≥ 50%
- inhibition at 0.1 µM [3]: ≥ 50%

SMILES: N=C(N)Nc1ccc(C(=O)Oc2ccc(COC(=O)N(CC(=O)N[C@@H](CC(=O)O)C(=O)NCCOCCOCCOCCOCCNC(=O)[C@H](CC(=O)O)NC(=O)CN(Cc3cccc(C(=O)O)c3)C(=O)OCc3ccc(OC(=O)c4ccc(NC(=N)N)cc4)cc3)Cc3cccc(C(=O)O)c3)cc2)cc1 [14-(b), (3S,22S)-3,22-bis(2-((3-carboxybenzyl) (((4-((4-guanidinobenzoyl)oxy)benzyl)oxy)carbonyl)amino)acetamido)-4,21-dioxo-8,1,14,17-tetraoxa-5,20-diazatetracosane-1,24-dioic acid trifluoroacetate]
- response vs control in vivo at 89 mg/kg ([1]; single oral dose 89 mg/kg): ≥ 130%
- inhibition at 0.01 µM [2, 6]: ≥ 50%
- inhibition at 0.1 µM [2, 7]: ≥ 50%
- inhibition at 0.001 µM [3]: ≥ 50%
- inhibition at 0.01 µM [3]: ≥ 50%
- inhibition at 0.1 µM [3]: ≥ 50%
- inhibition in vivo at 90 mg/kg ([4]; oral 90 mg/kg once daily for 2 weeks): ≥ 4%

SMILES: N=C(N)Nc1ccc(C(=O)Oc2ccc(CNS(=O)(=O)N(CCOCCOCCOCCOCCOCCN([C@@H](CC(=O)O)C(=O)O)S(=O)(=O)NCc3ccc(OC(=O)c4ccc(NC(=N)N)cc4)cc3)[C@@H](CC(=O)O)C(=O)O)cc2)cc1 [5-(b), (2S,22S)-3,21-bis(N-(4-((4-guanidinobenzoyl)oxy)benzyl)sulfamoyl)-6,9,12,15,18-pentaoxa-3,21-diazatricosane-1,2,22,23-tetracarboxylic acid trifluoroacetate]
- response vs control in vivo at 30 mg/kg [1]: ≥ 130%
- inhibition at 0.01 µM [2]: ≥ 50%
- inhibition at 0.1 µM [2]: ≥ 50%
- inhibition at 0.001 µM [3]: ≥ 50%
- inhibition at 0.01 µM [3]: ≥ 50%
- inhibition at 0.1 µM [3]: ≥ 50%

SMILES: N=C(N)Nc1ccc(C(=O)Oc2ccc(CNS(=O)(=O)N(CCOCCOCCN([C@@H](CC(=O)O)C(=O)O)S(=O)(=O)NCc3ccc(OC(=O)c4ccc(NC(=N)N)cc4)cc3)[C@@H](CC(=O)O)C(=O)O)cc2)cc1 [2-(b), (2S,13S)-3,12-bis(N-(4-((4-guanidinobenzoyl)oxy)benzyl)sulfamoyl)-6,9-dioxa-3,12-diazatetradecane-1,2,13,14-tetracarboxylic acid trifluoroacetate]
- response vs control in vivo at 86 mg/kg ([1]; single oral dose 86 mg/kg): ≥ 130%
- inhibition at 0.001 µM [2, 5]: ≥ 50%
- inhibition at 0.01 µM [2, 6]: ≥ 50%
- inhibition at 0.1 µM [2, 7]: ≥ 50%
- inhibition at 0.001 µM [3]: ≥ 50%
- inhibition at 0.01 µM [3]: ≥ 50%
- inhibition at 0.1 µM [3]: ≥ 50%

SMILES: N=C(N)Nc1ccc2c(c1)CCCOc1c(cccc1C(=O)N(CCOCCOCCOCCN(C(=O)c1cccc3c1OCCCc1cc(NC(=N)N)ccc1C(=O)O3)[C@@H](CC(=O)O)C(=O)O)[C@@H](CC(=O)O)C(=O)O)OC2=O [27-(b), (2S,165)-3,15-bis(10-guanidino-13-oxo-6,7,8,13-tetrahydrodibenzo[b,f][1,4]dioxecin-4-carbonyl)-6,9,12-trioxa-3,15-diazaheptadecane-1,2,16,17-tetracarboxylic acid]
- response vs control in vivo at 50 mg/kg ([1]; single oral dose 50 mg/kg): ≥ 130%
- inhibition at 0.001 µM [2, 5]: ≥ 50%
- inhibition at 0.01 µM [2, 6]: ≥ 50%
- inhibition at 0.1 µM [2, 7]: ≥ 50%
- inhibition at 0.01 µM [3]: ≥ 50%
- inhibition at 0.1 µM [3]: ≥ 50%
- inhibition in vivo at 50 mg/kg ([4]; oral 50 mg/kg once daily for 2 weeks): ≥ 4%

SMILES: N=C(N)Nc1ccc(C(=O)Oc2ccc(CNS(=O)(=O)N(CCOCCOCCOCCN([C@@H](CC(=O)O)C(=O)O)S(=O)(=O)NCc3ccc(OC(=O)c4ccc(NC(=N)N)cc4)cc3)[C@@H](CC(=O)O)C(=O)O)cc2)cc1 [3-(b), (2S,163)-3,15-bis(N-(4-((4-guanidinobenzoyl)oxy)benzyl)sulfamoyl)-6,9,12-trioxa-3,15-diazaheptadecane-1,2,16,17-tetracarboxylic acid trifluoroacetate]
- response vs control in vivo at 30 mg/kg [1]: ≥ 130%
- inhibition at 0.001 µM [2, 5]: ≥ 50%
- inhibition at 0.01 µM [2, 6]: ≥ 50%
- inhibition at 0.1 µM [2, 7]: ≥ 50%
- inhibition at 0.001 µM [3]: ≥ 50%
- inhibition at 0.01 µM [3]: ≥ 50%
- inhibition at 0.1 µM [3]: ≥ 50%
